Test results as given in patent US8765433B2, “Alcohol dehydrogenases (ADH) useful for fermentive production of lower alkyl alcohols” (priority 2009, dated 2014).

System: Achromobacter xylosoxidans SadB (SadB), SEQ ID NO: 26
Test: isobutyraldehyde reduction kinetics (A340, initial rates)
Format: biochemical
Conditions: read-out: KM (NADH); cofactor
From the text: This example describes preparation of ADH-gene constructs for over-expression/purification and measurement of enzyme activities using a time-course assay. Horse-liver ADH (HLADH; A-6128) was purchased from Sigma. Achromobacter xylosoxidans SadB (SadB), Saccharomyces cerevisiae ADH6 (ScADH6) and ADH7 (ScADH7), Entamoeba histolytica ADH1 (EhADH1), Bos Taurus Aldehyde Reductase (BtARD), Beijerinckia indica subsp. Indica ATCC 9039 (BiADH), Clostridium beijerinckii ADH (CbADH), Rana perezi ADH8 (RpADH8), Rattus norvegicus ADH1 (RnADH1), Thermus sp. ATN1 ADH (TADH), Phenylobacterium zucineum HLK1 ADH (PzADH), Methylocella silvestris BL2 ADH (MsADH), Acinetobacter baumannii AYE ADH (AbADH), Geobacillus sp. WCH70 ADH (GbADH), Vanderwaltozyma polyspora DSM 70294 ADH (VpADH), Mucor circinelloides ADH (McADH), and Rhodococcus erythropolis PR4ADH (ReADH) were the candidates for which subclones were prepared for protein expression and purification.
As a routine practice, the crude extracts and purified proteins were assayed for butanol oxidation activity, in order to ensure that the recombinant proteins were active throughout the purification process. […] Alcohol oxidation activities were carried out in 50 mM sodium phosphate buffer at pH 8.8 and aldehyde reduction reactions were assayed in 190 mM potassium phosphate buffer at pH 7.0. Depending on the nature of reaction being carried out, the enzyme and cofactor stocks were diluted in the reaction buffers at the respective pHs. Either buffer or cell extract prepared from the proprietary E. coli strain (with no ADH plasmid) was used as the negative control for assays with purified protein and cell-free extracts, respectively.
Kinetic constants of the ADH enzymes were calculated and compared to identify those candidate ADH enzymes with the most desirable properties for the conversion of isobutyraldehyde to isobutanol in the last step of the engineered pathway for isobutanol production. The assays for determining the kinetic constants were carried out using initial rates from the assays described above. […] The concentration of a given enzyme was such that it was conducive for the measurement of initial velocities over a 1-min time course. For each enzyme, Michaelis-Menten plots were generated with a broad range of substrate concentrations. Rough estimates of KM were obtained, based on which the assays were redesigned so as to use substrate concentrations in the range 0.5 to 10 times the KM value, to be able to obtain the appropriate kinetic constants. […] Reactions with isobutanol substrate were performed at 30° C. in 50 mM Sodium phosphate buffer, pH 8.8, containing 7.5 mM NAD. The Enzyme kinetics module (Version 1.3) of SigmaPlot 11 (Systat Software, Inc.) was used to fit data to Michaelis-Menten equations and calculate the kinetic constants. The kcat/KM is derived from the individual numbers of kcat and KM and not an experimentally determined value.
For those enzymes marked with an asterisk in Table 7, at least 3 assays were performed with separate preparations of the enzyme. All other numbers are values from either one assay or are averages from 2 assays performed with the same enzyme sample.

`NC(=O)C1=CN([C@@H]2O[C@H](COP(=O)(O)OP(=O)(O)OC[C@H]3O[C@@H](n4cnc5c(N)ncnc54)[C@H](O)[C@@H]3O)[C@@H](O)[C@H]2O)C=CC1` [NADH, reduced nicotinamide adenine dinucleotide] showed a Km of 20 µM.
